From patent US20150119825A1, “OPTIMIZING UNGUAL TREATMENT BY QUANTITATIVE AUTORADIOGRAPHY” (GALDERMA RESEARCH & DEVELOPMENT, priority 2012, published 2015)
Values joined by “and” are separate entries in the source; they are usually repeats but may differ in a detail not shown here. Equal values may be shown once. “Also recorded” adds a separate entry of the source. Where a name gives a salt, the structure may show the parent alone.

Tests used:
[1] = In vitro diffusion of [^14C]-Terbinafine at the nail bed of drilled human nails, quantitative whole body autoradiography (QWBA); format: in vitro ADME; conditions: for diffusion of radioactivity between the holes: 2 mm and 4 mm spaced holes
Source text: Four frozen human cadaver fingertips with nails were used. Each fingernail contained two series of three holes, one set at 2 mm apart and the other set at 4 mm apart.
The samples were placed in a Transwell plate containing 3 milliLiters (mL) of culture medium. Three of the nails received an application of the radiolabeled test item during one hour; one received an application of a non-radiolabeled test item. A finite dose (5 microLiters (μL)) of formulation was applied on the nail surface. Incubation was conducted for 1 hour at 37° C., 5% CO2 and saturated hygrometry. At the end of the incubation, excess of formulation was removed from the nail surface.
Each sample was frozen onto a support using adapted QWBA procedures. Sections were then taken through each fingernail onto tape and were analyzed using QWBA methods to determine the diffusion of radioactivity at the nail bed level from each site of administration. A 3-dimensional graph of the concentration of radioactivity was then created to visualize the diffusion through the nail matrix.
In vitro diffusion of [^14C]-Terbinafine on nail beds was studied on drilled human hand nails. Four samples were used through the study and were drilled as follows: • On each sample: 3 holes of 0.6 mm diameter, with 2 mm distance between each hole and 3 holes of 0.6 mm diameter, with 4 mm distance between each hole • 3 samples were treated with 10% [^14C]-Terbinafine in amphoteric solution One sample was treated with placebo • Treatment duration: 1 hour • 5 μL of test item were applied on each nail • Incubation at 37° C., 5% CO2 and saturated hygrometry during 1 hour • At the end of the incubation period, the excess of test item was removed and the samples were stored at −80° C. before processing for autoradiography analysis.
(§1) Three of the nails received an application of the radiolabeled test item, whilst the other nail received an application of the unlabelled test item as follows: • Samples A, B and C (Treated samples): 5 μL of the formulation containing 10% [^14C]-Terbinafine were applied on the surface of each of the nail samples. • Sample D (Control sample): 5 μL of the formulation containing 10% Terbinafine were applied on the surface of the nail sample.
(§2) The culture plate containing the nail samples was placed in a culture incubator kept at 37° C., 5% CO2 and saturated hygrometry. The duration of the nail treatment was 1 hour.
At the end of the treatment period, the excess of the formulation remaining on the nail was wiped off using a dried cotton swab and five successive cotton swabs wetted with absolute ethanol. These cotton swabs were discarded. The nail samples were then stored at −80° C., and shipped frozen for analysis by autoradiography.
The samples (four human fingernails) were received deeply frozen on solid CO2 and immediately transferred to storage in a freezer set to maintain a temperature of −80° C. A supporting block was prepared to support each sample during sectioning. Specifically, a mould was filled with 2% carboxymethylcellulose solution and frozen in a mixture of dry ice and hexane. The frozen finger was fixed in a horizontal position on a cork disc using a cryo-matrix and the disc was then fixed to the carboxymethylcellulose block with a further cryo-matrix. The finger was embedded so that the nail was facing to the side and to ensure that each series of holes was as horizontal as possible (dependant on the alignment of the drilled holes). A further cryomatrix was added around each finger to provide additional support during sectioning. The frozen blocks were stored in a freezer set to maintain a temperature of −20° C. prior to and following sectioning.
Each nail was sectioned through until immediately adjacent to the uppermost hole in the series. Horizontal sections (approximately 30 μm thick) were then taken through each fingernail onto adhesive tape. […]

[2] = Radioactivity level in the culture medium (receiver chamber) at the end of the treatment period, liquid scintillation counting; format: in vitro ADME, human; conditions: for radioactivity in culture medium, mean / radioactivity in culture medium, whole receiver chamber: 1 hour treatment; for radioactivity in culture medium, single counts: 5 μL of 10% formulation on drilled nail, 1 hour, 37° C., triplicate counts, hydrochloride; for Applied dose (%) found in culture medium: applied dose 1106175 dpm
Description: Each nail sample was then placed on a cell culture insert. Each insert was introduced into a receiver chamber of a 6-well culture plate. The receiver chamber was filled with 3 mL HHBSS containing antibiotics (2% penicilline-streptomycine).
as §1, §2
In order to check the specificity of the incubation system (no radioactive contamination due to leakage of applied formulation through the insert), the radioactivity level was measured in the culture medium at the end of the treatment period. Each receiver chamber medium was controlled in triplicate by liquid scintillation counting as follows: 100 μL of culture medium was directly counted by liquid scintillation counting using 10 mL of HIONIC FLUOR available from Perkin Elmer. The results presented in the table below show a very low radioactivity level in culture medium of sample A and sample C. The radioactivity level only represented 1.6% of the applied dose in sample A and 0.1% of the applied dose in sample C. These radioactivity levels were considered negligible and could not compromise the results of the study.

CN(C/C=C/C#CC(C)(C)C)Cc1cccc2ccccc12 [Terbinafine]
localization of diffusion (plots of FIGS. 4, 6, 8, 10, 12, 14) ([1]; Nails A to C, 2 mm and 4 mm hole sets): particularly localized to the holes in the nail

CN(C/C=C/C#CC(C)(C)C)Cc1cccc2ccccc12 [[^14C]-Terbinafine, Terbinafine hydrochloride]
diffusion of radioactivity between the holes ([1]; Nail A, 1 hour): little diffusion of radioactivity between the holes | concentrations of radioactivity between the holes ([1]; Nail A, 4 mm spacing, 1 hour): decrease to background levels between the holes | diffusion of radioactivity between the holes ([1]; Nail B, 1 hour): little diffusion of radioactivity between the holes | concentrations of radioactivity between the holes ([1]; Nail B, 4 mm spacing, 1 hour): decrease to background levels between the holes | diffusion of radioactivity between the holes ([1]; Nail C, 1 hour, holes did not receive a full application): little diffusion of radioactivity between the holes | concentrations of radioactivity between the holes ([1]; Nail C, 4 mm spacing, 1 hour): decrease to background levels between the holes | diffusion at the nail bed level around the holes ([1]; overall conclusion): diffusion of the radiolabeled drug at the nail bed level around the holes | radioactive signal on the surface of nail plates ([1]; overall conclusion): marked radioactive signal | diffusion of radioactivity between the holes, 4 mm versus 2 mm spacing ([1]; overall conclusion, Nails A to C, hydrochloride): little diffusion of radioactivity between the 4 mm spaced holes compared to the 2 mm spaced holes; also recorded: little diffusion of radioactivity between the 4 mm spacing holes compared to the 2 mm spacing holes | concentrations of radioactivity between the holes ([1]; overall conclusion, 4 mm spaced holes, hydrochloride): decreased to background radiation levels between the holes; also recorded: decrease to background levels between the holes | radioactivity in culture medium, mean ([2]; Mean sample A): 575.7 dpm/100 μL | radioactivity in culture medium, whole receiver chamber ([2]; Mean sample A): 17270 dpm/3 mL | radioactivity in culture medium, whole receiver chamber ([2]; Mean sample B): BLQ | radioactivity in culture medium, mean ([2]; Mean sample B, LOQ 54 dpm): 46.3 dpm/100 μL | radioactivity in culture medium, whole receiver chamber ([2]; Mean sample C): 1640 dpm/3 mL | radioactivity in culture medium, mean ([2]; Mean sample C, LOQ 54 dpm): 54.7 dpm/100 μL | radioactivity in culture medium, single counts ([2]; Sample A): 494 dpm/100 μL and 621 dpm/100 μL and 612 dpm/100 μL | Applied dose (%) found in culture medium ([2]; Sample A): 1.6% | radioactivity in culture medium, single counts ([2]; Sample B): 48 dpm/100 μL and 49 dpm/100 μL and 42 dpm/100 μL | Applied dose (%) found in culture medium ([2]; Sample B): 0% | radioactivity in culture medium, single counts ([2]; Sample C): 49 dpm/100 μL and 52 dpm/100 μL and 63 dpm/100 μL | Applied dose (%) found in culture medium ([2]; Sample C): 0.1%
